Target: 5-HT2A receptors (UniProt P14842)
Assay: in-vitro affinity to 5-HT2A receptors, [3H]ketanserine displacement (Example A1)
Format: binding
From the text: The 5-HT2A receptors are exposed both to [^3H]ketanserine (a substance known for its affinity to the receptor) and also to the test compound. The decrease in the affinity of [^3H]ketanserine to the receptor is an indication of the affinity of the test substance to the 5-HT2A receptor.

Row | IC50 | Structure (SMILES)
1 | 47 nM | CCC(CO)NCc1cnn(-c2ccc(-c3ccc(F)cc3)cc2)c1-c1ccco1 (centres unmarked) [Example 642, 2-{[1-(4′-Fluorobiphenyl-4-yl)-5-furan-2-yl-1H-pyrazol-4-ylmethyl]amino}butan-1-ol]
2 | 49 nM | O=C1CN(Cc2cnn(-c3ccc(-c4cccc(F)c4)cc3)c2-c2ccco2)CCN1 [Example 645, 4-[1-(3′-Fluorobiphenyl-4-yl)-5-furan-2-yl-1H-pyrazol-4-ylmethyl]piperazin-2-one]
3 | 50 nM | OC1CCCN(Cc2cnn(-c3ccc(-c4ccc(F)cc4)cc3)c2-c2ccco2)C1 (centres unmarked) [Example 646, 1-[1-(4′-Fluorobiphenyl-4-yl)-5-furan-2-yl-1H-pyrazol-4-ylmethyl]piperidin-3-ol]
4 | 53 nM | COc1ccc(-c2ccc(-n3ncc(CN4CCN(C)CC4)c3-c3ccccc3F)cc2)cn1 [Example 648, 1-{5-(2-Fluorophenyl)-1-[4-(6-methoxypyridin-3-yl)phenyl]-1H-pyrazol-4-ylmethyl}-4-methylpiperazine]
5 | 54 nM | CN1CCN(Cc2cnn(-c3ccc(-c4ccc(C#N)s4)cc3)c2-c2ccccc2F)CC1 [Example 649, 5-{4-[5-(2-Fluorophenyl)-4-(4-methylpiperazin-1-ylmethyl)pyrazol-1-yl]phenyl}thiophene-2-carbonitrile]
6 | 54 nM | CCN1CCN(Cc2cnn(-c3ccc(-c4ccc(F)cc4)cc3)c2-c2cccc(Cl)c2)CC1 [Example 650, 1-[5-(3-Chlorophenyl)-1-(4′-fluorobiphenyl-4-yl)-1H-pyrazol-4-ylmethyl]-4-ethylpiperazine]
7 | 55 nM | CN1CCN(Cc2cnn(-c3ccc(-c4ccc5c(c4)OCCO5)cc3)c2-n2cccc2)CC1 [Example 651, 1-{1-[4-(2,3-Dihydrobenzo-1,4-dioxin-6-yl)phenyl]-5-pyrrol-1-yl-1H-pyrazol-4-ylmethyl}-4-methylpiperazine]
8 | 55 nM | NC1CCN(Cc2cnn(-c3ccc(-c4ccc5c(c4)OCCO5)cc3)c2-c2ccco2)CC1 [Example 652, 1-{1-[4-(2,3-Dihydrobenzo-1,4-dioxin-6-yl)phenyl]-5-furan-2-yl-1H-pyrazol-4-ylmethyl}piperidin-4-ylamine]
9 | 58 nM | CN1CCN(Cc2cnn(-c3ccc(-c4ccc[nH]4)cc3)c2-c2ccccc2F)CC1 [Example 653, 1-{5-(2-Fluorophenyl)-1-[4-(1H-pyrrol-2-yl)phenyl]-1H-pyrazol-4-ylmethyl}-4-methylpiperazine]
10 | 61 nM | CC(C)CNCc1cnn(-c2ccc(-c3ccc(F)cc3)cc2)c1-c1ccco1 [Example 654, [1-(4′-Fluorobiphenyl-4-yl)-5-furan-2-yl-1H-pyrazol-4-ylmethyl]isobutylamine]
11 | 67 nM | Fc1ccc(-c2ccc(-n3ncc(CNCCc4ccncc4)c3-c3ccco3)cc2)cc1 [Example 655, [1-(4′-Fluorobiphenyl-4-yl)-5-furan-2-yl-1H-pyrazol-4-ylmethyl]-(2-pyridin-4-ylethyl)amine]
12 | 71 nM | COc1ccc(-c2ccc(-n3ncc(CNCc4cc[nH]n4)c3-c3ccco3)cc2)cc1 [Example 656, [5-Furan-2-yl-1-(4′-methoxybiphenyl-4-yl)-1H-pyrazol-4-ylmethyl]-(1H-pyrazol-3-ylmethyl)amine]
13 | 73 nM | CCCN1CCN(Cc2cnn(-c3ccc(-c4ccc(F)cc4)cc3)c2-c2ccoc2)CC1 [Example 657, 1-[1-(4′-Fluorobiphenyl-4-yl)-5-furan-3-yl-1H-pyrazol-4-ylmethyl]-4-propylpiperazine]
14 | 74 nM | CN1CCN(Cc2cnn(-c3ccc(-c4ccc(F)cc4)cc3)c2-n2cccc2)CC1 [Example 658, 1-[1-(4′-Fluorobiphenyl-4-yl)-5-pyrrol-1-yl-1H-pyrazol-4-ylmethyl]-4-methylpiperazine]
15 | 78 nM | CCN(CC)Cc1cnn(-c2ccc(-c3ccc(F)cc3)cc2)c1-c1ccoc1 [Example 662, Diethyl-[1-(4′-fluorobiphenyl-4-yl)-5-furan-3-yl-1H-pyrazol-4-ylmethyl]amine]
16 | 85 nM | CN1CCN(Cc2cnn(-c3ccc(-c4ccc(S(C)(=O)=O)cc4)cc3)c2-c2ccccc2F)CC1 [Example 663, 1-[5-(2-Fluorophenyl)-1-(4′-methanesulfonylbiphenyl-4-yl)-1H-pyrazol-4-ylmethyl]-4-methylpiperazine]
17 | 85 nM | COCCN1CCN(Cc2cnn(-c3ccc(-c4ccc(F)cc4)cc3)c2-c2ccoc2)CC1 [Example 664, 1-[1-(4′-Fluorobiphenyl-4-yl)-5-furan-3-yl-1H-pyrazol-4-ylmethyl]-4-(2-methoxyethyl)piperazine]
18 | 91 nM | COc1cccc(-c2c(CN3CCC(O)C3)cnn2-c2ccc(-c3ccc(F)cc3)cc2)c1 (centres unmarked) [Example 665, 1-[1-(4′-Fluorobiphenyl-4-yl)-5-(3-methoxyphenyl)-1H-pyrazol-4-ylmethyl]pyrrolidin-3-ol]
19 | 92 nM | OCCOCCNCc1cnn(-c2ccc(-c3ccc(F)cc3)cc2)c1-c1ccco1 [Example 666, 2-(2-{[1-(4′-Fluorobiphenyl-4-yl)-5-furan-2-yl-1H-pyrazol-4-ylmethyl]amino}ethoxy)ethanol]

Row | IC50 | Structure (SMILES)
20 | 93 nM | CC#Cc1ccc(-c2ccc(-n3ncc(CN4CCN(C)CC4)c3-c3ccccc3F)cc2)c(F)c1 [Example 667, 1-[5-(2-Fluorophenyl)-1-(2′-fluoro-4′-prop-1-ynylbiphenyl-4-yl)-1H-pyrazol-4-ylmethyl]-4-methylpiperazine]
21 | 94 nM | OCCCNCc1cnn(-c2ccc(-c3ccc(F)cc3)cc2)c1-c1ccco1 [Example 668, 3-{[1-(4′-Fluorobiphenyl-4-yl)-5-furan-2-yl-1H-pyrazol-4-ylmethyl]amino}propan-1-ol]
22 | 95 nM | CN(CCC#N)Cc1cnn(-c2ccc(-c3ccc(F)cc3)cc2)c1-c1ccco1 [Example 669, 3-{[1-(4′-Fluorobiphenyl-4-yl)-5-furan-2-yl-1H-pyrazol-4-ylmethyl]methylamino}propionitrile]
23 | 96 nM | OC1CCN(Cc2cnn(-c3ccc(-c4ccc(F)cc4)cc3)c2-c2ccoc2)C1 (centres unmarked) [Example 670, 1-[1-(4′-Fluorobiphenyl-4-yl)-5-furan-3-yl-1H-pyrazol-4-ylmethyl]pyrrolidin-3-ol]
24 | 100 nM | COc1ccc(-c2c(CN3CCN(C)CC3)cnn2-c2ccc(-c3ccc(F)cc3)cc2)cc1 [Example 671, 1-[1-(4′-Fluorobiphenyl-4-yl)-5-(4-methoxyphenyl)-1H-pyrazol-4-ylmethyl]-4-methylpiperazine]
25 | 100 nM | CCN1CCN(Cc2cnn(-c3ccc(-c4ccc(F)cc4)cc3)c2-c2c(C)noc2C)CC1 [Example 672, 1-[5-(3,5-Dimethylisoxazol-4-yl)-1-(4′-fluorobiphenyl-4-yl)-1H-pyrazol-4-ylmethyl]-4-ethylpiperazine]
26 | 120 nM | NC1CCN(Cc2cnn(-c3ccc(-c4cccc(F)c4)cc3)c2-c2ccco2)CC1 [Example 673, 1-[1-(3′-Fluorobiphenyl-4-yl)-5-furan-2-yl-1H-pyrazol-4-ylmethyl]piperidin-4-ylamine]
27 | 130 nM | CCN(CC)Cc1cnn(-c2ccc(-c3ccc(F)cc3)cn2)c1-c1ccco1 [Example 675, Diethyl-{1-[5-(4-fluorophenyl)pyridin-2-yl]-5-furan-2-yl-1H-pyrazol-4-ylmethyl}amine]
28 | 130 nM | CCN(CC)Cc1cnn(-c2ccc(-c3ccc(F)cc3)cc2)c1-c1cccc(OC)c1 [Example 676, Diethyl-[1-(4′-fluorobiphenyl-4-yl)-5-(3-methoxyphenyl)-1H-pyrazol-4-ylmethyl]amine]
29 | 130 nM | CCCCNCc1cnn(-c2ccc(-c3ccc(F)cc3)cc2)c1-c1ccco1 [Example 677, Butyl-[1-(4′-fluorobiphenyl-4-yl)-5-furan-2-yl-1H-pyrazol-4-ylmethyl]amine]
30 | 160 nM | O=C(O)Cc1cnn(-c2ccccc2F)c1-c1cccs1 [Example 678, 1-(2-Fluorophenyl)-5-(2-thienyl)-4-pyrazoleacetic acid]
31 | 170 nM | Fc1ccccc1-c1c(CN2CCN(Cc3ccccc3)CC2)cnn1-c1ccc(-c2ccccc2)cc1 [Example 679, 1-Benzyl-4-[1-biphenyl-4-yl-5-(2-fluorophenyl)-1H-pyrazol-4-ylmethyl]piperazine]
32 | 170 nM | OCC(O)CNCc1cnn(-c2ccc(-c3ccc(F)cc3)cc2)c1-c1ccco1 (centres unmarked) [Example 680, 3-{[1-(4′-Fluorobiphenyl-4-yl)-5-furan-2-yl-1H-pyrazol-4-ylmethyl]amino}propane-1,2-diol]
33 | 190 nM | CCN(CC)Cc1cnn(-c2ccc(-c3ccc(F)cc3)cc2)c1-c1cccc(Cl)c1 [Example 682, [5-(3-Chlorophenyl)-1-(4′-fluorobiphenyl-4-yl)-1H-pyrazol-4-ylmethyl]diethylamine]
34 | 190 nM | Fc1ccc(-c2ccc(-n3ncc(CN4CCN(CCc5ccc(F)cc5F)CC4)c3-c3cccc(Cl)c3)cc2)cc1 [Example 683, 1-[5-(3-Chlorophenyl)-1-(4′-fluorobiphenyl-4-yl)-1H-pyrazol-4-ylmethyl]-4-[2-(2,4-difluorophenyl)ethyl]piperazine]
35 | 190 nM | CCCN1CCN(Cc2cnn(-c3ccc(-c4ccc(F)cc4)cc3)c2-c2cccc(OC)c2)CC1 [Example 684, 1-[1-(4′-Fluorobiphenyl-4-yl)-5-(3-methoxyphenyl)-1H-pyrazol-4-ylmethyl]-4-propylpiperazine]
36 | 190 nM | COCCN1CCN(Cc2cnn(-c3ccc(-c4ccc(F)cc4)cc3)c2-c2cccc(OC)c2)CC1 [Example 685, 1-[1-(4′-Fluorobiphenyl-4-yl)-5-(3-methoxyphenyl)-1H-pyrazol-4-ylmethyl]-4-(2-methoxyethyl)piperazine]
37 | 200 nM | Fc1ccc(-c2ccc(-n3ncc(CN4CCN(C5CCCC5)CC4)c3-c3cccc(Cl)c3)cc2)cc1 [Example 686, 1-[5-(3-Chlorophenyl)-1-(4′-fluorobiphenyl-4-yl)-1H-pyrazol-4-ylmethyl]-4-cyclopentylpiperazine]

Row | Structure (SMILES) | IC50
38 | Fc1ccc(-c2ccc(-n3ncc(CNC4CN5CCC4CC5)c3-c3ccco3)cc2)cc1 (centres unmarked) [Example 681, (1-Azabicyclo[2.2.2]oct-3-yl)-[1-(4′-fluorobiphenyl-4-yl)-5-furan-2-yl-1H-pyrazol-4-ylmethyl]amine] | 180 nM

From patent publication US7842695B2, “Substituted pyrazole compounds” (Merck Patent GmbH, priority 2003, dated 2010)
